The source of these data is patent publication US20030170694A1, “Stabilized nucleic acids in gene and drug discovery and methods of use” (priority 2001, published 2003).

In experiment [1] the test system is E. coli cells transcribing antisense RNA to rplL and rplJ (AS-rplL/J). The experiment in a line: microbe, parasite or virus in culture. Type of experiment: cell-based. The conditions noted are these: for IC50: Escherichia coli; for Fold Increase: IC50 without IPTG vs IC50 with 400 μM IPTG; for Sensitivity (increased sensitivity observed in the presence of IPTG): statistically significant decrease in IC50 in the presence of inducer. How it is done:
Antibiotics of various chemical classes and modes of action were purchased from Sigma Chemicals (St. Louis, Mo.). Stock solutions were prepared by dissolving each antibiotic in an appropriate aqueous solution based on information provided by the manufacturer. The final working solution of each antibiotic contained no more than 0.2% (w/v) of any organic solvent. To determine their potency against a bacterial strain engineered for transcription of an antisense comprising a nucleotide sequence complementary to a proliferation-required 50S ribosomal protein, each antibiotic was serially diluted two-or three-fold in growth medium supplemented with the appropriate antibiotic for maintenance of the antisense construct. At least ten dilutions were prepared for each antibiotic. 25 μL aliquots of each dilution were transferred to discrete wells of a 384-well microplate (the assay plate) using a multi-channel pipette. Quadruplicate wells were used for each dilution of an antibiotic under each treatment condition (plus and minus inducer). Each assay plate contained twenty wells for cell growth controls (growth medium replacing antibiotic), ten wells for each treatment (plus and minus inducer, in this example IPTG). Assay plates were usually divided into the two treatments: half the plate containing induced cells and an appropriate concentrations of inducer (in this example IPTG) to maintain the state of induction, the other half containing non-induced cells in the absence of IPTG.
Cells for the assay were prepared as follows. Bacterial cells containing a construct, from which transcription of antisense nucleic acid comprising a nucleotide sequence complementary to rplL and rplJ (AS-rplL/J), which encode proliferation-required 50S ribosomal subunit proteins, is inducible in the presence of IPTG, were grown into exponential growth (OD600 0.2 to 0.3) and then diluted 1:100 into fresh medium containing either 400 μM or 0 μM inducer (IPTG). These cultures were incubated at 37° C. for 2.5 hr. After a 2.5 hr incubation, induced and non-induced cells were respectively diluted into an assay medium at a final OD600 value of 0.0004. The medium contained an appropriate concentration of the antibiotic for the maintenance of the antisense construct. In addition, the medium used to dilute induced cells was supplemented with 800 μM IPTG so that addition to the assay plate would result in a final IPTG concentration of 400 μM. Induced and non-induced cell suspensions were dispensed (25 μl/well) into the appropriate wells of the assay plate as discussed previously. The plate was then loaded into a plate reader, incubated at constant temperature, and cell growth was monitored in each well by the measurement of light scattering at 595 nm. Growth was monitored every 5 minutes until the cell culture attained a stationary growth phase. For each concentration of antibiotic, a percentage inhibition of growth was calculated at the time point corresponding to mid-exponential growth for the associated control wells (no antibiotic, plus or minus IPTG). For each antibiotic and condition (plus or minus IPTG), a plot of percent inhibition versus log of antibiotic concentration was generated and the IC50 determined.

Experiment [2] deals with E. coli transformed with IPTG-inducible antisense clones. Description: Cell-based assay of antibiotic sensitivity in E. coli transcribing non-stabilized antisense RNA. The source says:
The effectiveness of the above cell-based assays in which the level or activity of a gene product required for proliferation was reduced was validated using constructs transcribing a non-stabilized antisense RNA to the proliferation required E. coli genes rplL, rplJ and rplW encoding ribosomal proteins L7/L12, L10 and L23 respectively. These proteins are essential components of the protein synthesis apparatus of the cell and as such are required for proliferation. Constructs transcribing antisense RNA to several other genes (elaD, visC, yohH, and atpE/B), the products of which are not involved in protein synthesis were used for comparison.
First, pLex5BA (Krause et al., J. Mol. Biol. 274: 365 (1997), the disclosure of which is incorporated herein by reference in its entirety) vectors containing antisense constructs to either rplW or to elaD were introduced into separate E. coli cell populations. […]
The cell populations containing vectors producing AS-elaD or AS-rplW were exposed to a range of IPTG concentrations in liquid medium to obtain the growth inhibitory dose curve for each clone (FIG. 5). First, seed cultures were grown to a particular turbidity measured by the optical density (OD) of the growth solution. […] The cells were grown for up to 15 hours and the extent of growth was determined by measuring the optical density of the cultures at 600 nm. […]

≈ marks a conversion by molar mass, not a printed value. Like-named read-outs stand apart in the source and are kept apart here. Positions of bridges follow the written chain, without caps; N, C: chain ends. Non-standard residues stand in square brackets, D forms with d. Residues, ends and D or L forms follow the SMILES beside them. *: point of attachment. Ileψ(thiazoline)Cys = CC[C@H](C)[C@H](N)C1=N[C@H](C(=O)*)CS1; dOrn = NCCC[C@@H](N)C(=O)O Some results are limits rather than exact numbers.

For orientation: IC50 means the concentration that gives 50% inhibition. Turning to `CC[C@H](C)[C@H](N)C1=N[C@H](C(=O)N[C@@H](CC(C)C)C(=O)N[C@H](CCC(=O)O)C(=O)N[C@H](C(=O)N[C@H]2CCCCNC(=O)[C@H](CC(N)=O)NC(=O)[C@@H](CC(=O)O)NC(=O)[C@H](Cc3cnc[nH]3)NC(=O)[C@@H](Cc3ccccc3)NC(=O)[C@H]([C@@H](C)CC)NC(=O)[C@@H](CCCN)NC2=O)[C@@H](C)CC)CS1` [Bacitracin] ({Ileψ(thiazoline)Cys}-L[dE]IK[dOrn]I[dF]H[dD]N; lactam 4-C), in experiment [1] (read-out: IC50 (+IPTG)), the IC50 came to 4.68 mg/L (≈ 3.29 µM). Moreover, the IC50 in experiment [1] (read-out: IC50 (−IPTG)) is 4.08 mg/L (≈ 2.87 µM). Further, in experiment [1], the “Fold Increase” value was determined as 1 and the “Sensitivity (increased sensitivity observed in the presence of IPTG)” value is reported as “No”.
As for `CO/N=C(\C(=O)N[C@@H]1C(=O)N2C(C(=O)O)=C(COC(C)=O)CS[C@H]12)c1csc(N)n1` [Cefotaxime], in experiment [1], the “Fold Increase” value is on record as 1 and the “Sensitivity (increased sensitivity observed in the presence of IPTG)” value is recorded as “No”.
Taken in the same sequence, the figures for `CO[C@@]1(NC(=O)Cc2cccs2)C(=O)N2C(C(=O)O)=C(COC(N)=O)CS[C@@H]21` [Cefoxitin] were 1 and “No”.
Taken in the same sequence, the figures for `O=C(N[C@H](CO)[C@H](O)c1ccc([N+](=O)[O-])cc1)C(Cl)Cl` [Chloramphenicol] were 307 and “Yes”.
On to `C[C@H]1c2cccc(O)c2C(=O)C2=C(O)[C@]3(O)C(=O)C(C(N)=O)=C(O)[C@@H](N(C)C)[C@@H]3[C@@H](O)[C@@H]21` [Doxycycline], for which the “Fold Increase” value in experiment [1] is 15.
Turning to `CC[C@H]1OC(=O)[C@H](C)[C@@H](O[C@H]2C[C@@](C)(OC)[C@@H](O)[C@H](C)O2)[C@H](C)[C@@H](O[C@@H]2O[C@H](C)C[C@H](N(C)C)[C@H]2O)[C@](C)(O)C[C@@H](C)C(=O)[C@H](C)[C@@H](O)[C@]1(C)O` [Erythromycin], in experiment [1], the “Fold Increase” value is given as 40 and the “Sensitivity (increased sensitivity observed in the presence of IPTG)” value is reported as “Yes”. Moreover, the “sensitivity of clones to the antibiotic” value in experiment [2] (clones transcribing antisense to protein synthesis genes (L7/L12 & L10, L7/L12, L22, L18, rRNA, Elongation Factor G), initial experiments) was “increased sensitivity”.
As to `CC(=O)O[C@H]1C[C@@]2(C)[C@@H](C[C@@H](O)[C@H]3[C@@]4(C)CC[C@@H](O)[C@@H](C)[C@@H]4CC[C@@]32C)/C1=C(\CCC=C(C)C)C(=O)O` [Fusidic acid], in experiment [1], the “Fold Increase” value is reported as 94 and the “Sensitivity (increased sensitivity observed in the presence of IPTG)” value was “Yes”.
Taken in the same sequence, the figures for `CCC[C@@H]1C[C@@H](C(=O)N[C@@H]([C@H]2O[C@H](SC)[C@H](O)[C@@H](O)[C@H]2O)[C@@H](C)O)N(C)C1` [Lincomycin] were 145 and “Yes”.
In the case of `CN(C)c1ccc(O)c2c1C[C@H]1C[C@H]3[C@H](N(C)C)C(O)=C(C(N)=O)C(=O)[C@@]3(O)C(O)=C1C2=O` [Minocycline], the “Fold Increase” value in experiment [1] is reported as 172.
For the compound `CCn1cc(C(=O)O)c(=O)c2ccc(C)nc21` [Nalidixic acid], in experiment [1], the “Fold Increase” value came to 1 and the “Sensitivity (increased sensitivity observed in the presence of IPTG)” value is “No”. Further, the “sensitivity of clone to the antibiotic” value in experiment [2] (clone transcribing antisense to rplL and rplJ (AS-rplL/J)) was “does not show increased sensitivity”.
For the compound `CC1COc2c(N3CCN(C)CC3)c(F)cc3c(=O)c(C(=O)O)cn1c23` (centres unmarked) [Ofloxacin], the “Fold Increase” value in experiment [1] amounted to 1.
On to `CN[C@@H]1[C@H](O)[C@H](NC)[C@H]2O[C@@]3(O)C(=O)C[C@@H](C)O[C@H]3O[C@@H]2[C@H]1O` [Spectinomycin], for which the IC50 in experiment [1] (read-out: IC50 (+IPTG)) was below 0.156 mg/L. Besides, the “Sensitivity (increased sensitivity observed in the presence of IPTG)” value in experiment [1] is “Yes”.
On to `[H]/N=C(/N)N[C@H]1[C@H](O)[C@@H](O)[C@H](O[C@@H]2O[C@@H](C)[C@](O)(C=O)[C@H]2O[C@@H]2O[C@@H](CO)[C@H](O)[C@@H](O)[C@@H]2NC)[C@@H](N/C(N)=N\[H])[C@@H]1O` [Streptomycin], for which, in experiment [1], the “Fold Increase” value was found to be 70 and the “Sensitivity (increased sensitivity observed in the presence of IPTG)” value is “Yes”.
For `CN(C)[C@@H]1C(O)=C(C(N)=O)C(=O)[C@@]2(O)C(O)=C3C(=O)c4c(O)cccc4[C@@](C)(O)[C@H]3C[C@@H]12` [Tetracycline], the “Fold Increase” value in experiment [1] was determined as 109.
Turning to `NC[C@H]1O[C@H](O[C@H]2[C@H](O)[C@@H](O[C@H]3O[C@H](CO)[C@@H](O)[C@H](N)[C@H]3O)[C@H](N)C[C@@H]2N)[C@H](N)C[C@@H]1O` [Tobramycin], in experiment [1], the “Fold Increase” value was 51 and the “Sensitivity (increased sensitivity observed in the presence of IPTG)” value was “Yes”.
Regarding `CN[C@H](CC(C)C)C(=O)N[C@H]1C(=O)N[C@@H](CC(N)=O)C(=O)N[C@H]2C(=O)N[C@H]3C(=O)N[C@H](C(=O)N[C@H](C(=O)O)c4cc(O)cc(O)c4-c4cc3ccc4O)[C@H](O)c3ccc(c(Cl)c3)Oc3cc2cc(c3O[C@@H]2O[C@H](CO)[C@@H](O)[C@H](O)[C@H]2O[C@H]2C[C@](C)(N)[C@H](O)[C@H](C)O2)Oc2ccc(cc2Cl)[C@H]1O` [Vancomycin], the IC50 in experiment [1] (read-out: IC50 (+IPTG)) stood at 72.5 mg/L (≈ 50.1 µM). Moreover, the IC50 in experiment [1] (read-out: IC50 (−IPTG)) came out at 145 mg/L (≈ 100 µM). For the same compound, in experiment [1], the “Fold Increase” value is recorded as 2 and the “Sensitivity (increased sensitivity observed in the presence of IPTG)” value is “No”.
Turning to Gentamicin, in experiment [1], the “Fold Increase” value was 141 and the “Sensitivity (increased sensitivity observed in the presence of IPTG)” value is “Yes”. Further, the “IC50 (+IPTG)” value in experiment [1] (induced AS-rplL/J cells, 400 μM IPTG) amounted to 0.01919 mg/L. Besides, in experiment [1] (non-induced AS-rplL/J cells, 0 μM IPTG), the “IC50 (−IPTG)” value is 2.715 mg/L.
